Measured values: US9439904B2, “Pyrimidine compounds and their use as gamma secretase modulators” (Acturum Life Science AB, priority 2013, dated 2016)

Legend:
Aβ42 [1] = assay: PCN assay: Aβ42 secreted by primary cortical neuronal cells, ELISA; assay type: cell-based; details: primary cortical neuronal cells from 16-day mouse embryos; 16-20 hours incubation with test compound; read-out: pIC50 Aβ42 PCN assay (converted)
Description: Compounds were diluted in 100% DMSO and stored at […] prior to use. Primary cortical neuronal cells (PCN) were isolated from 16-day mouse embryos and cultured in Ham's F12 media containing 10% Foetal bovine serum, 10 mM Hepes, 2 mM L-glutamine and 100 U/mL Penicillin-Streptomycin. 150000-250000 cells/well, in 200 μL cell media were seeded onto 96-well poly-D-Lysine coated plates. After incubation at 37° C., 5% CO2 for five days, the media was exchanged for fresh medium containing test compound diluted ×100, before further incubation for 16-20 hours at 37° C. and 5% CO2. After incubation with test compound the amount of […] secreted to cell medium was analyzed using the solid phase sandwich Enzyme-Linked-Immuno-Sorbent Assay (ELISA)-kit from Invitrogen for detection of mouse βAmyloid 1-42. Potential cytotoxic effects of the compounds were assayed by measuring the ATP content (Via Light) from cell lysate.

Aβ42 [2] = assay: HEK assay: Aβ42 secreted to cell medium, Meso Scale Discovery electrochemiluminescence; assay type: cell-based; details: Homo sapiens, HEK293; HEK cell line stably expressing APPswe; 4-6 hours incubation with test compound; read-out: pIC50 Aβ42 HEK assay (converted)
Description: Compounds were diluted in 100% DMSO and stored at […] prior to use. Human Embryonic Kidney (HEK) cell line stably expressing APP with the Swedish mutation (APPswe) was cultured using Dulbecco's Modified Eagles medium (DMEM) supplied with […] glucose, Na-pyruvate and GlutaMAX, 10% Foetal bovine serum, 100 U/mL penicillin-streptomycin (PEST), 1× non-essential amino acids (NEAA), […] Hepes, 100 μg/mL Zeocine. Cells at about 80% confluence were washed with PBS, detached from culture flasks using 1× Trypsin/EDTA diluted in PBS, re-suspended in cell media and plated in 384-well poly-d-lysine coated cell culture plates at about 10000-15000 cells/well, in 25 μL cell media. Optionally, cryo-preserved cells (frozen and stored at −140° C. in 90% cell media and 10% DMSO) were thawed, washed and plated as above. Next the cells were incubated for 15-24 h at 37° C. and 5% CO2, after which cell medium was changed. Fresh medium containing test compound diluted ×200 from prepared compound plate was added to the cells before further incubation for 4-6 hours at 37° C. and 5% CO2. After incubation with test compound the amount of Aβ peptides, including Aβ42, Aβ40, Aβ39, Aβ38 and Aβ37, secreted to cell medium was analyzed using the electrochemiluminescence assay technology from Meso Scale Discovery Technology, in combination with specific antibodies raised against the different Aβ peptides. Potential cytotoxic effects of the compounds were assayed by measuring the ATP content (ViaLight) from cell lysate.

SMILES	IC50 (Aβ42 [1]) [nM]	IC50 (Aβ42 [2]) [nM]
COc1cc(Nc2nc(COCC(F)(F)F)cc(NC3CC3)n2)ccc1-n1cnc(C)c1 [Example 34, N^4-Cyclopropyl-N^2-(3-methoxy-4-(4-methyl-1H-imidazol-1-yl)phenyl)-6-((2,2,2-trifluoroethoxy)methyl)pyrimidine-2,4-diamine]	100	50.1
COc1cc(Nc2nc(COCC(F)(F)F)cc(NC3COC3)n2)ccc1-n1cnc(C)c1 [Example 35, N^2-(3-Methoxy-4-(4-methyl-1H-imidazol-1-yl)phenyl)-N^4-(oxetan-3-yl)-6-((2,2,2-trifluoroethoxy)methyl)pyrimidine-2,4-diamine]	25.1	50.1
COc1cc(Nc2nc(COCC(F)(F)F)cc(NCC(C)(C)O)n2)ccc1-n1cnc(C)c1 [Example 36, 1-(2-(3-Methoxy-4-(4-methyl-1H-imidazol-1-yl)phenylamino)-6-((2,2,2-trifluoroethoxy)-methyl)pyrimidin-4-ylamino)-2-methylpropan-2-ol]	39.8	63.1
COCCNc1cc(COCC(F)(F)F)nc(Nc2ccc(-n3cnc(C)c3)c(OC)c2)n1 [Example 37, N2-(3-Methoxy-4-(4-methyl-1H-imidazol-1-yl)phenyl)-N4-(2-methoxyethyl)-6-((2,2,2-trifluoroethoxy)methyl)pyrimidine-2,4-diamine]	63.1	39.8
COc1cc(Nc2nc(COCC(F)(F)F)cc(NCCC#N)n2)ccc1-n1cnc(C)c1 [Example 38, 3-(2-(3-Methoxy-4-(4-methyl-1H-imidazol-1-yl)phenylamino)-6-((2,2,2-trifluoroethoxy)-methyl)pyrimidin-4-ylamino)propanenitrile]	39.8	50.1
COc1cc(Nc2nc(CNCc3ccccc3)cc(COCC(F)(F)F)n2)ccc1-c1cnnc(C)c1 [Example 39, 4-((Benzylamino)methyl)-N-(3-methoxy-4-(6-methylpyridazin-4-yl)phenyl)-6-((2,2,2-trifluoroethoxy)methyl)pyrimidin-2-amine]	200	126
COc1cc(Nc2nc(COCC(F)(F)F)cc(CN3CC(F)C3)n2)ccc1-n1cnc(C)c1 [Example 40, 4-((3-Fluoroazetidin-1-yl)methyl)-N-(3-methoxy-4-(4-methyl-1H-imidazol-1-yl)phenyl)-6-((2,2,2-trifluoroethoxy)methyl)pyrimidin-2-amine]	100	126
COc1cc(Nc2nc(COCC(F)(F)F)cc(CN3CC(F)C3)n2)ccc1-c1cnnc(C)c1 [Example 42, 4-((3-Fluoroazetidin-1-yl)methyl)-N-(3-methoxy-4-(6-methylpyridazin-4-yl)phenyl)-6-((2,2,2-trifluoroethoxy)methyl)pyrimidin-2-amine]	251	79.4
COc1cc(Nc2nc(COCC(F)(F)F)cc(C(C)N3CC(F)C3)n2)ccc1-n1cnc(C)c1 (stereo not drawn) [Example 43, 4-(1-(3-Fluoroazetidin-1-yl)ethyl)-N-(3-methoxy-4-(4-methyl-1H-imidazol-1-yl)phenyl)-6-((2,2,2-trifluoroethoxy)methyl)pyrimidin-2-amine]	158	31.6
COc1cc(Nc2nc(COCC(F)(F)F)cc(C(C)O)n2)ccc1-n1cnc(C)c1 (stereo not drawn) [Example 44, 1-(2-(3-Methoxy-4-(4-methyl-1H-imidazol-1-yl)phenylamino)-6-((2,2,2-trifluoroethoxy)-methyl)pyrimidin-4-yl)ethanol]	100	50.1
CCC(C)(O)c1cc(COCC(F)(F)F)nc(Nc2ccc(-n3cnc(C)c3)c(OC)c2)n1 (stereo not drawn) [Example 45, 2-(2-(3-Methoxy-4-(4-methyl-1H-imidazol-1-yl)phenylamino)-6-((2,2,2-trifluoroethoxy)-methyl)pyrimidin-4-yl)butan-2-ol]	63.1	50.1
COc1cc(Nc2nc(COCC(F)(F)F)cc(C(C)(C)O)n2)ccc1-c1cnc(C)o1 [Example 46, 2-(2-(3-Methoxy-4-(2-methyloxazol-5-yl)phenylamino)-6-((2,2,2-trifluoroethoxy)methyl)-pyrimidin-4-yl)propan-2-ol]	79.4	39.8
